Experimental data: article PMC12483217, “Exploring β-catenin and TCF4 interaction in complex environments by means of novel biosensing platform focal molography” (PLOS One, 2025)
Where a SMILES comes first, the peptide text is derived from it. Where no end group is shown, it is not given here. The star is where a group is joined. Biotin = O=C1N[C@H]2[C@H](CS[C@H]2CCCCC(=O)*)N1

What was measured:
Human β-catenin [1] = target: T1, Human β-catenin (Homo sapiens, UniProt P35222); experiment: Focal molography (FM) direct binding of β-catenin to immobilised TCO-TCF4(7–30), buffer; details: range over 3 sensors x 3 runs
T1 construct: Variant: β-catenin (human) (Hs134–670)+TCF4(Hs1–53); purchased Proteros Biostructures
T1 sequence (P35222 134-670): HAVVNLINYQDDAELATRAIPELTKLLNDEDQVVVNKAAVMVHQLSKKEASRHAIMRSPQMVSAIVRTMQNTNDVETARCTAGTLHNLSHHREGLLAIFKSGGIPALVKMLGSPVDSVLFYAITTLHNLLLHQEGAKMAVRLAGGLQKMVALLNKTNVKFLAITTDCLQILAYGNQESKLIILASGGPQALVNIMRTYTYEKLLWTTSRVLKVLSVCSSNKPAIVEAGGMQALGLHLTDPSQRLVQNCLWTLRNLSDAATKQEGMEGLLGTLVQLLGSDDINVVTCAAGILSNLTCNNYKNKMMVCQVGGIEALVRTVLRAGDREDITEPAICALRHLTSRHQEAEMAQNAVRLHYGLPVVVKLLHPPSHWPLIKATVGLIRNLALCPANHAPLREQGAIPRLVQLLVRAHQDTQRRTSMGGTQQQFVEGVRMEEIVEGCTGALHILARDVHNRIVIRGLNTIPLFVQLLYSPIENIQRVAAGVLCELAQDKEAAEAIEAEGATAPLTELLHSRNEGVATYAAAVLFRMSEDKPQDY
Protocol: (§1) FM experiments were conducted using a prototype FM reader from the “Fermi” generation developed by lino Biotech AG (Supplementary Figure 10 S1 File). The flow channel shape was hexagonal (Supplementary Figure 9 A&C S1 File) and the parallel region measured 12.0 x 1.9 x 0.1 mm. Only 18 molograms were recorded per measurement in order to save computing power for faster sampling rates of the intensities of the single molograms. Thus, the lower part of the double flow chamber was used. In all FM experiments, the same running buffer as in SPR was used. Samples in glass vials were injected from the autosampler (Alias, Spark Holland) and transferred with a syringe pump (Precision Syringe Drive/4, Hamilton) to the flow channel for 17 seconds at a flow rate of 400 µL/min (sample delivery step). […] During the association phase, the sample was passed through the flow chamber for one minute at a flow rate of 50 µL/min. To prevent the recording of the dilutive end of the sample, a fast flow rate of 500 µL/min was applied for two minutes to record the dissociation phase, followed by additional two minutes at a flow rate of 50 µL/min. For the regeneration, regeneration solution was injected from glass vials into the autosampler loop. The regeneration solution was passed through the flow chamber for three minutes at a flow rate of 100 µL/min.
(§2) A sensor chip of FM measured 9 x 18 mm. […]

Human β-catenin [2] = target: T1, Human β-catenin; experiment: Focal molography (FM) direct binding of β-catenin to immobilised TCO-TCF4(7–30), RKO cell lysate; details: cell lysate 1 Mio cells/mL, range over sensors and runs
Protocol: as §1, §2

Human β-catenin [3] = target: T1, Human β-catenin; experiment: Focal molography (FM) competition: free TCF4(7–51) with 250 nM β-catenin over TCF4(7–30) sensor, RKO cell lysate; format: binding; details: cell lysate 1 Mio cells/mL
Protocol: as §1
A sensor chip of FM measured 9 x 18 mm. The sensing area per mologram was 400 x 400 µm with 54 molograms (6 x 9 array) being present on one sensor chip. The center to center spacing of molograms in flow direction was 690 µm and 750 µm perpendicular to the flow. The sensors used in FM were manufactured and treated following published manufacturing protocols with the difference that the photoprotective PhSNPPOC group was replaced by a more hydrophilic PySNPPOC group. To activate the ridges using reactive immersion lithography, a phase mask was placed on the surface with a layer of 0.1% (v/v) hydroxyl amine in DMSO applied in between the mask and the sensor surface. The chip was exposed at 405 nm at a dose of 4000 mJ/cm^2 with a custom-built setup. Following exposure, the chip was incubated in 1 mM methyltetrazine-4-polyethyleneglycol-N-Hydroxysuccinimide (MeTz-PEG4-NHS) dissolved in HBST (10 mM HEPES, 150 mM NaCl, 0.05% (v/v) Tween20, pH 8.0) for 1 hour. After incubation, the chip was washed sequentially with 50:50 H2O/DMSO, DMSO, Isopropanol and H2O. Next, the entire chip surface, including the grooves, was activated by flood illumination with a dose of 18 J/cm^2. The chip was washed sequentially with 50:50 MQ H2O/DMSO, DMSO, Isopropanol and MQ H2O. As a final step, the chip was incubated with 10 mM tetrazine (Tz)-PEG5-NHS in HBST (10 mM HEPES, 150 mM NaCl, 0.05% (v/v) Tween20, pH 8.0) for 1 hour and washed with isopropanol and H2O. […]

Human β-catenin [4] = target: T1, Human β-catenin; experiment: SPR competition: free TCF4(7–51) with 250 nM β-catenin over immobilised TCF4(7–30), buffer; format: binding; details: buffer pH 7.4, 95% confidence interval of fit
Protocol: (§3) For all SPR experiments, the running buffer consisting of 10 mM HEPES, 150 mM NaCl, 0.01% (v/v) P20, 1% (v/v) glycerol, 0.01% (v/v) BSA and 2% (v/v) DMSO at pH 7.4 was used. The TCF(7–30) peptide ([…]-K-biotin-amide) peptide was obtained from Biosyntan GmbH. Experiments were conducted at room temperature on a Biacore T200 (GE Healthcare, Uppsala, Sweden). The peptide was immobilized onto a Series S sensor chip SA (10352113, Cytiva, Uppsala, Sweden). Following the manufacturer’s protocol, the sensor was first prepared, and the peptide was injected at a concentration of 10 nM at a flow rate of 10 µL/min. Immobilization was achieved via biotin-streptavidin interaction to a level of 5, 25 and 50 RU in three different flow channels respectively. […] Binding analysis was monitored on all four flow channels with sample association time of one minute and dissociation time of four minutes at a flow rate of 50 µL/min. […]
(§4) The equilibrium dissociation constant (KD) and half maximal inhibitory concentration (IC50) were determined from binding signals collected in direct binding and competition experiments, respectively. […]
(§5) The SPR data was visualized and analyzed using GraphPad Prism 10.0.0 (Boston, Massachusetts USA, www.graphpad.com). For SPR analysis, signals recorded on the active surfaces were referenced with signals from the reference channel. […]

Human β-catenin [5] = target: T1, Human β-catenin; experiment: Focal molography (FM) competition: free TCF4(7–51) with 250 nM β-catenin over TCF4(7–30) sensor, buffer; format: binding; details: range over 3 sensors x 3 runs
Protocol: as §1, §2

Human β-catenin [6] = target: T1, Human β-catenin; experiment: SPR direct binding of β-catenin to immobilised biotinylated TCF4(7–30) in buffer; details: only one Hill slope
Protocol: as §3, §4, §5

beta-catenin = target: T2, beta-catenin (Homo sapiens, UniProt P35222); experiment: SPR
T2 chain: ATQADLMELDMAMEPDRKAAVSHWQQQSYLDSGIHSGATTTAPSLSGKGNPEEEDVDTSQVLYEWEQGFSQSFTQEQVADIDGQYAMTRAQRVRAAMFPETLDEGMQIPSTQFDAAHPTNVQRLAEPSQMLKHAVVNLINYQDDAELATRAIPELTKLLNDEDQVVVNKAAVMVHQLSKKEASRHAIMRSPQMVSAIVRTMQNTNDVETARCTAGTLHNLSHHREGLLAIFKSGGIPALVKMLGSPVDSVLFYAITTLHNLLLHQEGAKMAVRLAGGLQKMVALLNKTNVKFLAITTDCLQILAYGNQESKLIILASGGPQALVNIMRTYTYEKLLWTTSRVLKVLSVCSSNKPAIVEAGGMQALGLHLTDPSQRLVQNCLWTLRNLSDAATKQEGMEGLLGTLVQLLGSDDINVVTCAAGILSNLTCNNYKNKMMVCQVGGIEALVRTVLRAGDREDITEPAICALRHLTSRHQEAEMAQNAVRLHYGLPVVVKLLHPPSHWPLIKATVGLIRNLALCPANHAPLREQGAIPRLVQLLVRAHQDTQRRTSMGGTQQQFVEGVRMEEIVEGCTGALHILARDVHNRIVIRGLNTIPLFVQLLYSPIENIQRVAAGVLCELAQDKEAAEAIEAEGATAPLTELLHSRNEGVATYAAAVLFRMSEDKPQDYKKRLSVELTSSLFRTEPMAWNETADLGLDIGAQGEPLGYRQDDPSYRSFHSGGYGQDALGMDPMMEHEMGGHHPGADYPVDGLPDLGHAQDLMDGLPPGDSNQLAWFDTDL

CC[C@H](C)[C@H](NC(=O)[C@H](CC(C)C)NC(=O)[C@H](CCC(=O)O)NC(=O)[C@H](CC(=O)O)NC(=O)[C@H](CC(N)=O)NC(=O)[C@H](C)NC(=O)CNC(=O)[C@H](CC(C)C)NC(=O)[C@H](CC(=O)O)NC(=O)[C@H](CC(=O)O)NC(=O)CNC(=O)CNC(=O)CN)C(=O)N[C@@H](CO)C(=O)N[C@@H](Cc1ccccc1)C(=O)N[C@@H](CCCCN)C(=O)N[C@@H](CC(=O)O)C(=O)N[C@@H](CCC(=O)O)C(=O)NCC(=O)N[C@@H](CCC(=O)O)C(=O)N[C@@H](CCC(N)=O)C(=O)N[C@@H](CCC(=O)O)C(=O)N[C@@H](CCC(=O)O)C(=O)N[C@@H](CCCCN)C(=O)O [TCF4(7–30)] (H-GGGDDLGANDELISFKDEGEQEEK-OH) showed a Kd (Human β-catenin [1]) of 68 to 160 nM and a Kd (Human β-catenin [2]) of 100 to 140 nM.

“GGGDDLGANDELISFKDEGEQEEKSSENSSAERDLADVKSSLVNE [TCF4(7–51)]” was tested, and the IC50 (Human β-catenin [3]; Sensor 1, average of three runs, SD, read-out: IC50, Average ± SD) was 170 nM, the IC50 (Human β-catenin [3]; Sensor 2, average of three runs, SD, read-out: IC50, Average ± SD) was 160 nM and the IC50 (Human β-catenin [3]; Sensor 3, average of three runs, SD, read-out: IC50, Average ± SD) was 140 nM. It also gave an IC50 (Human β-catenin [3]; range over sensors and runs, read-out: IC50) of 140 to 170 nM, an IC50 (Human β-catenin [4]) of 95 to 115 nM and an IC50 (Human β-catenin [5]) of 110 to 200 nM.

With CC[C@H](C)[C@H](NC(=O)[C@H](CC(C)C)NC(=O)[C@H](CCC(=O)O)NC(=O)[C@H](CC(=O)O)NC(=O)[C@H](CC(N)=O)NC(=O)[C@H](C)NC(=O)CNC(=O)[C@H](CC(C)C)NC(=O)[C@H](CC(=O)O)NC(=O)[C@H](CC(=O)O)NC(=O)CNC(=O)CNC(=O)CN)C(=O)N[C@@H](CO)C(=O)N[C@@H](Cc1ccccc1)C(=O)N[C@@H](CCCCN)C(=O)N[C@@H](CC(=O)O)C(=O)N[C@@H](CCC(=O)O)C(=O)NCC(=O)N[C@@H](CCC(=O)O)C(=O)N[C@@H](CCC(N)=O)C(=O)N[C@@H](CCC(=O)O)C(=O)N[C@@H](CCC(=O)O)C(=O)N[C@@H](CCCCN)C(=O)N[C@@H](CCCCNC(=O)CCCC[C@@H]1SC[C@@H]2NC(=O)N[C@@H]21)C(N)=O [biotinylated TCF4(7–30)] (H-GGGDDLGANDELISFKDEGEQEEKK(Biotin)-NH2; N-terminus assumed) the “Hill slope of the dose-response” value (Human β-catenin [6]) was 1.21.

GGGDDLGANDELISFKDEGEQEEKSSENSSAERDLADVKSSLVNE [TCF4 peptide TCF(7-51) 7-51] showed a Kd (beta-catenin) of roughly 108 nM.
